For the test, the target named is T1, calcitonin receptors (CTR) (Homo sapiens, UniProt P30988).
T1 construct: expressed in transfected cells; host or cells: cAMP Hunter HEK293-CT-R Gs cell line (HEK293, stably transfected)
T1 sequence (P30988 25-474): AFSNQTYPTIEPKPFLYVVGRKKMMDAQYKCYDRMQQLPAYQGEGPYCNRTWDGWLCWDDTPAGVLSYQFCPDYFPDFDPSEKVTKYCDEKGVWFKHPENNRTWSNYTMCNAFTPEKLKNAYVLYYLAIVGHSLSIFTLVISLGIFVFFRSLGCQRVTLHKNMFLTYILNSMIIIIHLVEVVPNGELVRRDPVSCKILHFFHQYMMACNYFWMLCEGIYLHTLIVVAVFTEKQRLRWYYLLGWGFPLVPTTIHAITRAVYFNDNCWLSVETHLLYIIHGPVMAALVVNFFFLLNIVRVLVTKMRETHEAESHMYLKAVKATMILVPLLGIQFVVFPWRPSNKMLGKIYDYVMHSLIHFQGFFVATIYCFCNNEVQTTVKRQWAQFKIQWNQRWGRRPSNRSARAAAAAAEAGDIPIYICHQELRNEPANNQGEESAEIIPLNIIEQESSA
Briefly: cAMP determination (HTRF, cAMP Dynamic 2 Kit) in cAMP Hunter HEK293-CT-R Gs cell line. The format is cell-based. The following applies: for Relative Activity%: relative to Salmon Calcitonin = 100.0, HEK293 CT-R cAMP; for EC50: HEK293 cell line stably expressing CT-R, intracellular cAMP, HTRF. The text has this: Upon activation by a ligand, Gas-coupled GPCRs can upregulate intracellular cAMP level, and cAMP, as a second messenger, can mediate a series of cellular responses. The cAMP Hunter HEK293-CT-R Gs cell line, which overexpresses Gas-coupled calcitonin receptors (CTR), was used. The binding of calcitonin (or an analog thereof) to the overexpressed CTR upregulates intracellular cAMP level. The amount of intracellular cAMP produced after activation by the calcitonin (or an analog thereof) was detected using a cAMP Dynamic 2 Kit to evaluate the biological activity of the calcitonin (or an analog thereof). HEK293 cell line stably expressing CT-R was used. Stably transfected cells were stimulated with various concentrations of agonists. The time-resolved fluorescence resonance energy signal from the cells after stimulation with different doses was measured using HTRF technology, from which the biological activity of the agonist was subsequently calculated.
In general terms: Time-resolved FRET reads energy transfer from a long-lived donor to a nearby acceptor.

For the compound `CC(C)C[C@H](NC(=O)[C@H](CCCCN)NC(=O)CNC(=O)[C@H](CC(C)C)NC(=O)[C@@H](NC(=O)[C@@H]1CSSC[C@H](N)C(=O)N[C@@H](CO)C(=O)N[C@@H](CC(N)=O)C(=O)N[C@@H](CC(C)C)C(=O)N[C@@H](CO)C(=O)N[C@@H]([C@@H](C)O)C(=O)N1)C(C)C)C(=O)N[C@@H](CO)C(=O)N[C@@H](CCC(N)=O)C(=O)N[C@@H](CCC(=O)O)C(=O)N[C@@H](CC(C)C)C(=O)N[C@@H](Cc1c[nH]cn1)C(=O)N[C@@H](CCCCNC(=O)COCCOCCOCCNC(=O)CC[C@H](NC(=O)CCCCCCCCCCCCCCCCC(=O)O)C(=O)O)C(=O)N[C@@H](CC(C)C)C(=O)N[C@@H](CCC(N)=O)C(=O)N[C@H](C(=O)N[C@@H](Cc1ccc(O)cc1)C(=O)N1CCC[C@H]1C(=O)N[C@@H](CCCNC(=N)N)C(=O)N[C@H](C(=O)N[C@@H](CC(N)=O)C(=O)N[C@H](C(=O)NCC(=O)N[C@@H](CO)C(=O)NCC(=O)N[C@H](C(=O)N1CCC[C@H]1C(N)=O)[C@@H](C)O)[C@@H](C)O)[C@@H](C)O)[C@@H](C)O` [Compound 18, Cys-Ser-Asn-Leu-Ser-Thr-Cys-Val-Leu-Gly-Lys-Leu-Ser-Gln-Glu-Leu-His-Lys(PEG3CH2CO-γGlu-octadecanedioic acid)-Leu-Gln-Thr-Tyr-Pr o-Arg-Thr-Asn-Thr-Gly-Ser-Gly-Thr-Pro-NH2], the “Relative Activity%” value is recorded as 271.4%.

Take `CC(C)C[C@H](NC(=O)[C@H](CCCCN)NC(=O)CNC(=O)[C@H](CC(C)C)NC(=O)[C@@H](NC(=O)[C@@H]1CSSC[C@H](N)C(=O)N[C@@H](CO)C(=O)N[C@@H](CC(N)=O)C(=O)N[C@@H](CC(C)C)C(=O)N[C@@H](CO)C(=O)N[C@@H]([C@@H](C)O)C(=O)N1)C(C)C)C(=O)N[C@@H](CO)C(=O)N[C@@H](CCC(N)=O)C(=O)N[C@@H](CCC(=O)O)C(=O)N[C@@H](CC(C)C)C(=O)N[C@@H](Cc1c[nH]cn1)C(=O)N[C@@H](CCCCNC(=O)CNC(=O)CNC(=O)CNC(=O)CNC(=O)CNC(=O)CNC(=O)CC[C@H](NC(=O)CCCCCCCCCCCCCCCCCCC(=O)O)C(=O)O)C(=O)N[C@@H](CC(C)C)C(=O)N[C@@H](CCC(N)=O)C(=O)N[C@H](C(=O)N[C@@H](Cc1ccc(O)cc1)C(=O)N1CCC[C@H]1C(=O)N[C@@H](CCCNC(=N)N)C(=O)N[C@H](C(=O)N[C@@H](CC(N)=O)C(=O)N[C@H](C(=O)NCC(=O)N[C@@H](CO)C(=O)NCC(=O)N[C@H](C(=O)N1CCC[C@H]1C(N)=O)[C@@H](C)O)[C@@H](C)O)[C@@H](C)O)[C@@H](C)O` [Compound 15]: the EC50 is 6.5 pM. As to `CC(C)C[C@H](NC(=O)[C@H](CCCCN)NC(=O)CNC(=O)[C@H](CC(C)C)NC(=O)[C@@H](NC(=O)[C@@H]1CSSC[C@H](N)C(=O)N[C@@H](CO)C(=O)N[C@@H](CC(N)=O)C(=O)N[C@@H](CC(C)C)C(=O)N[C@@H](CO)C(=O)N[C@@H]([C@@H](C)O)C(=O)N1)C(C)C)C(=O)N[C@@H](CO)C(=O)N[C@@H](CCC(N)=O)C(=O)N[C@@H](CCC(=O)O)C(=O)N[C@@H](CC(C)C)C(=O)N[C@@H](Cc1c[nH]cn1)C(=O)N[C@@H](CCCCNC(=O)COCCOCCNC(=O)CC[C@H](NC(=O)CCCCCCCCCCCCCCCCCCC(=O)O)C(=O)O)C(=O)N[C@@H](CC(C)C)C(=O)N[C@@H](CCC(N)=O)C(=O)N[C@H](C(=O)N[C@@H](Cc1ccc(O)cc1)C(=O)N1CCC[C@H]1C(=O)N[C@@H](CCCNC(=N)N)C(=O)N[C@H](C(=O)N[C@@H](CC(N)=O)C(=O)N[C@H](C(=O)NCC(=O)N[C@@H](CO)C(=O)NCC(=O)N[C@H](C(=O)N1CCC[C@H]1C(N)=O)[C@@H](C)O)[C@@H](C)O)[C@@H](C)O)[C@@H](C)O` [Compound 2, Cys-Ser-Asn-Leu-Ser-Thr-Cys-Val-Leu-Gly-Lys-Leu-Ser-Gln-Glu-Leu-His-Lys(PEG2CH2CO-γGlu-eicosanedioic acid)-Leu-Gln-Thr-Tyr-Pro-Arg-Thr-Asn-Thr-Gly-Ser-Gly-Thr-Pro-NH2], the “Relative Activity%” value turned out to be 231.7%. Take `CC(C)C[C@H](NC(=O)[C@H](CCCCN)NC(=O)CNC(=O)[C@H](CC(C)C)NC(=O)[C@@H](NC(=O)[C@@H]1CSSC[C@H](N)C(=O)N[C@@H](CO)C(=O)N[C@@H](CC(N)=O)C(=O)N[C@@H](CC(C)C)C(=O)N[C@@H](CO)C(=O)N[C@@H]([C@@H](C)O)C(=O)N1)C(C)C)C(=O)N[C@@H](CO)C(=O)N[C@@H](CCC(N)=O)C(=O)N[C@@H](CCC(=O)O)C(=O)N[C@@H](CC(C)C)C(=O)N[C@@H](Cc1c[nH]cn1)C(=O)N[C@@H](CCCCNC(=O)CNC(=O)CNC(=O)[C@H](CO)NC(=O)CNC(=O)[C@H](CO)NC(=O)CNC(=O)CC[C@H](NC(=O)CCCCCCCCCCCCCCCCCCC(=O)O)C(=O)O)C(=O)N[C@@H](CC(C)C)C(=O)N[C@@H](CCC(N)=O)C(=O)N[C@H](C(=O)N[C@@H](Cc1ccc(O)cc1)C(=O)N1CCC[C@H]1C(=O)N[C@@H](CCCNC(=N)N)C(=O)N[C@H](C(=O)N[C@@H](CC(N)=O)C(=O)N[C@H](C(=O)NCC(=O)N[C@@H](CO)C(=O)NCC(=O)N[C@H](C(=O)N1CCC[C@H]1C(N)=O)[C@@H](C)O)[C@@H](C)O)[C@@H](C)O)[C@@H](C)O` [Compound 8]: the EC50 turned out to be 3.7 pM. `CC(C)C[C@H](NC(=O)[C@H](CCCCN)NC(=O)CNC(=O)[C@H](CC(C)C)NC(=O)[C@@H](NC(=O)[C@@H]1CSSC[C@H](N)C(=O)N[C@@H](CO)C(=O)N[C@@H](CC(N)=O)C(=O)N[C@@H](CC(C)C)C(=O)N[C@@H](CO)C(=O)N[C@@H]([C@@H](C)O)C(=O)N1)C(C)C)C(=O)N[C@@H](CO)C(=O)N[C@@H](CCC(N)=O)C(=O)N[C@@H](CCC(=O)O)C(=O)N[C@@H](CC(C)C)C(=O)N[C@@H](Cc1c[nH]cn1)C(=O)N[C@@H](CCCCNC(=O)COCCOCCOCCOCCOCCOCCNC(=O)CC[C@H](NC(=O)CCCCCCCCCCCCCCCCCCC(=O)O)C(=O)O)C(=O)N[C@@H](CC(C)C)C(=O)N[C@@H](CCC(N)=O)C(=O)N[C@H](C(=O)N[C@@H](Cc1ccc(O)cc1)C(=O)N1CCC[C@H]1C(=O)N[C@@H](CCCNC(=N)N)C(=O)N[C@H](C(=O)N[C@@H](CC(N)=O)C(=O)N[C@H](C(=O)NCC(=O)N[C@@H](CO)C(=O)NCC(=O)N[C@H](C(=O)N1CCC[C@H]1C(N)=O)[C@@H](C)O)[C@@H](C)O)[C@@H](C)O)[C@@H](C)O` [Compound 6, Cys-Ser-Asn-Leu-Ser-Thr-Cys-Val-Leu-Gly-Lys-Leu-Ser-Gln-Glu-Leu-His-Lys(PEG6CH2CO-yGlu-eicosanedioic acid)-Leu-Gln-Thr-Tyr-Pro-Arg-Thr-Asn-Thr-Gly-Ser-Gly-Thr-Pro-NH2]: the “Relative Activity%” value is reported as 172.7%. The same measure, in the same setting: the figure for `CC(C)C[C@H](NC(=O)[C@H](CCCCN)NC(=O)CNC(=O)[C@H](CC(C)C)NC(=O)[C@@H](NC(=O)[C@@H]1CSSC[C@H](N)C(=O)N[C@@H](CO)C(=O)N[C@@H](CC(N)=O)C(=O)N[C@@H](CC(C)C)C(=O)N[C@@H](CO)C(=O)N[C@@H]([C@@H](C)O)C(=O)N1)C(C)C)C(=O)N[C@@H](CO)C(=O)N[C@@H](CCC(N)=O)C(=O)N[C@@H](CCC(=O)O)C(=O)N[C@@H](CC(C)C)C(=O)N[C@@H](Cc1c[nH]cn1)C(=O)N[C@@H](CCCCNC(=O)COCCOCCOCCNC(=O)CC[C@H](NC(=O)CCCCCCCCCCCCCCCCCCCCC(=O)O)C(=O)O)C(=O)N[C@@H](CC(C)C)C(=O)N[C@@H](CCC(N)=O)C(=O)N[C@H](C(=O)N[C@@H](Cc1ccc(O)cc1)C(=O)N1CCC[C@H]1C(=O)N[C@@H](CCCNC(=N)N)C(=O)N[C@H](C(=O)N[C@@H](CC(N)=O)C(=O)N[C@H](C(=O)NCC(=O)N[C@@H](CO)C(=O)NCC(=O)N[C@H](C(=O)N1CCC[C@H]1C(N)=O)[C@@H](C)O)[C@@H](C)O)[C@@H](C)O)[C@@H](C)O` [Compound 20, Cys-Ser-Asn-Leu-Ser-Thr-Cys-Val-Leu-Gly-Lys-Leu-Ser-Gln-Glu-Leu-His-Lys(PEG3CH2CO-γGlu-docosanedioic acid)-Leu-Gln-Thr-Tyr-Pro-Arg-Thr-Asn-Thr-Gly-Ser-Gly-Thr-Pro-NH2] is 296.9%.

One may read the EC50 as the concentration at which the effect is half-maximal.

Values taken from patent EP4691482A1, “LONG-ACTING CALCITONIN ANALOG” (Chengdu Aoda Biotechnology Co., Ltd., priority 2023, dated 2024).
